Reference: publication PMC6437697 (Journal of Medicinal Chemistry, 2019)

Tests used:
Test in all cases: KINOMEscan
Type in all cases: binding
Settings in all cases: read-out: % control activity remaining
ABL2 = biological target: T1, ABL2 (Homo sapiens, UniProt P42684)
T1 construct: purchased Eurofins DiscoverX KINOMEscan

AKT3 = biological target: T2, AKT3 (Homo sapiens, UniProt Q9Y243)
T2 construct: purchased Eurofins DiscoverX KINOMEscan

CHEK2 = biological target: T3, CHEK2 (Homo sapiens, UniProt O96017)
T3 construct: purchased Eurofins DiscoverX KINOMEscan
T3 sequence (O96017 whole entry): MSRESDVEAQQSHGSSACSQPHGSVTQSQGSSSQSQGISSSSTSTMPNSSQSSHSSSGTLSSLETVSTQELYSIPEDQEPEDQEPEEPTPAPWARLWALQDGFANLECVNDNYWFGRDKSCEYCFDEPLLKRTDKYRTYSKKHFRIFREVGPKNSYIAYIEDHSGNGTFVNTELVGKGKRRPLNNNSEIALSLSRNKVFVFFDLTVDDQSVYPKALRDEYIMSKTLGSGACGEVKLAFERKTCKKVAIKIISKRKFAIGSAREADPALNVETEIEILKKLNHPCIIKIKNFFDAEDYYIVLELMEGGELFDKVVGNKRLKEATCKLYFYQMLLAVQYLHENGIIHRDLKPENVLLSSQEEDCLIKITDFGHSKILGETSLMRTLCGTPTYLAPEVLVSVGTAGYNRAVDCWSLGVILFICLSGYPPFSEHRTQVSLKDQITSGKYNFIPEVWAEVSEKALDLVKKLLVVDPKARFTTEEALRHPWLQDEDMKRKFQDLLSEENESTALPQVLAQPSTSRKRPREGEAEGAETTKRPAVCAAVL

CLK2 = biological target: T4, CLK2 (Homo sapiens, UniProt P49760)
T4 construct: purchased Eurofins DiscoverX KINOMEscan
T4 sequence (P49760 whole entry): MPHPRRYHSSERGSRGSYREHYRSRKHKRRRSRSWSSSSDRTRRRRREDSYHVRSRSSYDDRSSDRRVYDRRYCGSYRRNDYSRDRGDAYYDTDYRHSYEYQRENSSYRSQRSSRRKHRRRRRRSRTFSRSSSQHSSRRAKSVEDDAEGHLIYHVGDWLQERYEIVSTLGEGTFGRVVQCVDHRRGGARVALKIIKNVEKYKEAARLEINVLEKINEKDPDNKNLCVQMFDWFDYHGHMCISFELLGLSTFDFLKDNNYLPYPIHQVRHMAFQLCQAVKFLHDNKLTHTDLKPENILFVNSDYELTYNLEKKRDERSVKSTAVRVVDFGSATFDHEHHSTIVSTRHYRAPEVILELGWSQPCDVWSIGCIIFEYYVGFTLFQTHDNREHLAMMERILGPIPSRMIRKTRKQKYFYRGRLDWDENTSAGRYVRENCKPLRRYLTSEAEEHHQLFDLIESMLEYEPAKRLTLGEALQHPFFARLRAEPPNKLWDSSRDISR

DDR1 = biological target: T5, DDR1 (Homo sapiens, UniProt Q08345)
T5 construct: purchased Eurofins DiscoverX KINOMEscan
T5 sequence (Q08345 19-913): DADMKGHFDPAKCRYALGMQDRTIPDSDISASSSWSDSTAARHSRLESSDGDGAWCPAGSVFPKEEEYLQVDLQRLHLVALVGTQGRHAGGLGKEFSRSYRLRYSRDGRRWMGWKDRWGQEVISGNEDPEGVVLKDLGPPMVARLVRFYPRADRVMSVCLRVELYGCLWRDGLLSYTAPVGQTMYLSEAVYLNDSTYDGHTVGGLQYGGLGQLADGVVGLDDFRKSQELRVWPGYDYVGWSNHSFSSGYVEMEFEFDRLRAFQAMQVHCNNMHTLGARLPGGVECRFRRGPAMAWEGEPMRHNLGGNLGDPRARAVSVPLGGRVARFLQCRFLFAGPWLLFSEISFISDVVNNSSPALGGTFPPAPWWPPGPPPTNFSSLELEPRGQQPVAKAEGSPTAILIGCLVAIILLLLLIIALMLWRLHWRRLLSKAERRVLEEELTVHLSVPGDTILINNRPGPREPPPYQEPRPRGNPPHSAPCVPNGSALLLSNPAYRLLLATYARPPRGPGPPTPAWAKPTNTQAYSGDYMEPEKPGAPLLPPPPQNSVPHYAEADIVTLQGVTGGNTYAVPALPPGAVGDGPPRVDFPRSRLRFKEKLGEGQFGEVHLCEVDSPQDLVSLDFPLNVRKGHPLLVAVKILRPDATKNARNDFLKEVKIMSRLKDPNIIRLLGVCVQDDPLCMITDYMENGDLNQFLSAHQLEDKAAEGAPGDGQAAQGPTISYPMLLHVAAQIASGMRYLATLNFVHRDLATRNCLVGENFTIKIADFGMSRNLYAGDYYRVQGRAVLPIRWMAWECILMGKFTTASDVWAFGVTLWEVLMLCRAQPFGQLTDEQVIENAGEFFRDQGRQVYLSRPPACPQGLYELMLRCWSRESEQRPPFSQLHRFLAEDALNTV

FER = biological target: T6, FER (Homo sapiens, UniProt P16591)
T6 construct: purchased Eurofins DiscoverX KINOMEscan

GCN2(Kin.Dom.2,S808G) = biological target: T7, GCN2(Kin.Dom.2,S808G) (Homo sapiens, UniProt Q9P2K8, S808G)
T7 construct: GCN2(Kin.Dom.2,S808G); purchased Eurofins DiscoverX KINOMEscan
T7 sequence (Q9P2K8 590-1001 S808G limits assumed): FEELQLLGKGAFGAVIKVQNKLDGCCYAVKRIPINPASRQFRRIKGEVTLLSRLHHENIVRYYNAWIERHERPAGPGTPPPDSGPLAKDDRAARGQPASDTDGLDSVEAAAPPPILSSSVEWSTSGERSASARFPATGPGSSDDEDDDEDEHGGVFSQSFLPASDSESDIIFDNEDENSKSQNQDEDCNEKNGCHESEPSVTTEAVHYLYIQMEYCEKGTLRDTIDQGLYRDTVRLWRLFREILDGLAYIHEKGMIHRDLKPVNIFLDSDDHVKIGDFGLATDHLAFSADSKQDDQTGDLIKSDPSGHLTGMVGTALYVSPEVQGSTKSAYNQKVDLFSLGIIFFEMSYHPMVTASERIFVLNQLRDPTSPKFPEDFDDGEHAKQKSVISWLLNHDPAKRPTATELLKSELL

KIT(V559D,V654A) = biological target: T8, KIT(V559D,V654A) (Homo sapiens, UniProt P10721, V559D/V654A)
T8 construct: purchased Eurofins DiscoverX KINOMEscan

LKB1 = biological target: T9, LKB1 (Homo sapiens, UniProt Q15831)
T9 construct: purchased Eurofins DiscoverX KINOMEscan
T9 sequence (Q15831 1-433): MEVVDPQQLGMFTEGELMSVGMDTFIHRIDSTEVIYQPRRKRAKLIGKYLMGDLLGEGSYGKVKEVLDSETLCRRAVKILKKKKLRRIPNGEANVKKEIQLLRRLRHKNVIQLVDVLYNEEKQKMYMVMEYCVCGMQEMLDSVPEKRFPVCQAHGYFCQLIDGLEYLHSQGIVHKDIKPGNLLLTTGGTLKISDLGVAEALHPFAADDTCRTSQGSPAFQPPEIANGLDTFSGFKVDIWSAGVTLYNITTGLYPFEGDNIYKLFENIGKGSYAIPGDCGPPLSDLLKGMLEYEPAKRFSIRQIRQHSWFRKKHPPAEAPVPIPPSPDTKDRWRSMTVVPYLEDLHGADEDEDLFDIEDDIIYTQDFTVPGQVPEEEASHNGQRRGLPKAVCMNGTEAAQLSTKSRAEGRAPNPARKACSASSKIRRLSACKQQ

MYLK4 = biological target: T10, MYLK4 (Homo sapiens, UniProt Q86YV6)
T10 construct: purchased Eurofins DiscoverX KINOMEscan
T10 sequence (Q86YV6 1-388): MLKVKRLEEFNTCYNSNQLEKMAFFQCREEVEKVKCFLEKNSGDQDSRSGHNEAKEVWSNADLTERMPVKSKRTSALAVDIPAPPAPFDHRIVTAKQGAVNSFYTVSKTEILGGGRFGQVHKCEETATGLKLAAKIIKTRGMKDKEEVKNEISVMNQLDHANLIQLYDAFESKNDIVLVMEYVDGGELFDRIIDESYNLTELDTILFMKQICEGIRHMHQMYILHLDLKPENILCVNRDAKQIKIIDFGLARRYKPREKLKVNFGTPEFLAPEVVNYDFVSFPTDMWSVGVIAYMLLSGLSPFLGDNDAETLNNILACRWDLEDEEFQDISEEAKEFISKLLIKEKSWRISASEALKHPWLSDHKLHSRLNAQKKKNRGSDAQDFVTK

PDPK1 = biological target: T11, PDPK1 (Homo sapiens, UniProt O15530)
T11 construct: purchased Eurofins DiscoverX KINOMEscan
T11 sequence (O15530 1-556): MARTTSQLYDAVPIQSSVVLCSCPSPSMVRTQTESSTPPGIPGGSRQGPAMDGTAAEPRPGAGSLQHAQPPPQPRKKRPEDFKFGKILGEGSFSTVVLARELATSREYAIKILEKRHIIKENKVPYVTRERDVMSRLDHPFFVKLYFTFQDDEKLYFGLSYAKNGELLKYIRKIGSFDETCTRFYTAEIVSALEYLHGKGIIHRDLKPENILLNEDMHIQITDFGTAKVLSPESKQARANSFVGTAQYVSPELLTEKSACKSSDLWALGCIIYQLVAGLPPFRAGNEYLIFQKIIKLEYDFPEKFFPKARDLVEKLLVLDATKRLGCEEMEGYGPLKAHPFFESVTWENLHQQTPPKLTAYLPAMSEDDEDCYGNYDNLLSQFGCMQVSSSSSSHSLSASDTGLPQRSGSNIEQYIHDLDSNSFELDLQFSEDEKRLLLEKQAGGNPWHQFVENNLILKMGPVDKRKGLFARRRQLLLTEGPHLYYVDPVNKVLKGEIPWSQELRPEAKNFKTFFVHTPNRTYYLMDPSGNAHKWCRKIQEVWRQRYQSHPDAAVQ

PIK3CG = biological target: T12, PIK3CG (Homo sapiens, UniProt P48736)
T12 construct: purchased Eurofins DiscoverX KINOMEscan
T12 sequence (P48736 whole entry): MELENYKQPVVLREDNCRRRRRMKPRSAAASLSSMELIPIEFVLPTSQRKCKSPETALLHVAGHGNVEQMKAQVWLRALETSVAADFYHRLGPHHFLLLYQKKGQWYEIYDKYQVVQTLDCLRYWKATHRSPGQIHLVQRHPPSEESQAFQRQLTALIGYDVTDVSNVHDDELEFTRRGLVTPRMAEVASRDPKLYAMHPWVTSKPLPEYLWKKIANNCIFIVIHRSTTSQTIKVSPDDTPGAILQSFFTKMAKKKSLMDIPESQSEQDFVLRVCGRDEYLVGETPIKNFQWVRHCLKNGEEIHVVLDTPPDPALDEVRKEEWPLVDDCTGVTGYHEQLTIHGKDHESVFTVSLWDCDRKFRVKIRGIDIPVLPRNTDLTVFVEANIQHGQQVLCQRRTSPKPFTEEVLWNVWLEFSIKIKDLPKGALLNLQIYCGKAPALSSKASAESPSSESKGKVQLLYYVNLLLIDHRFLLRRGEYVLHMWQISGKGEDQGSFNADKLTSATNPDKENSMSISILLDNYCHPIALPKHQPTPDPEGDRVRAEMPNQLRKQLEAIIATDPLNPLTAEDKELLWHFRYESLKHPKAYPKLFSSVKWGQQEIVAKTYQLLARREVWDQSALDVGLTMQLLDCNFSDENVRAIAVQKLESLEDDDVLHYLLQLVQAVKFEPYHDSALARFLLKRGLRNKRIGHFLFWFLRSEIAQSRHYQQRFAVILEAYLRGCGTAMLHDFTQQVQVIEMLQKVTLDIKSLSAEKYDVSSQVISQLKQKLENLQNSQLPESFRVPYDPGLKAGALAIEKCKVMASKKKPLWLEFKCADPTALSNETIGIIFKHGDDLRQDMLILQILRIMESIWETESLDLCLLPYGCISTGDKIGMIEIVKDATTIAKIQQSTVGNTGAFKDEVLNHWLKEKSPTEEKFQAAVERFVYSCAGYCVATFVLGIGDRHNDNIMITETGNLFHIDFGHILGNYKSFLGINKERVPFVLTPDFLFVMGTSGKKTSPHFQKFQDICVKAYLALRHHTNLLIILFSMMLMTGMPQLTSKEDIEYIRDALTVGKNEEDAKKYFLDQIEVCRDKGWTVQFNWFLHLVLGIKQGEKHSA

PRP4 = biological target: T13, PRP4 (Homo sapiens, UniProt Q13523)
T13 construct: purchased Eurofins DiscoverX KINOMEscan
T13 sequence (Q13523 whole entry): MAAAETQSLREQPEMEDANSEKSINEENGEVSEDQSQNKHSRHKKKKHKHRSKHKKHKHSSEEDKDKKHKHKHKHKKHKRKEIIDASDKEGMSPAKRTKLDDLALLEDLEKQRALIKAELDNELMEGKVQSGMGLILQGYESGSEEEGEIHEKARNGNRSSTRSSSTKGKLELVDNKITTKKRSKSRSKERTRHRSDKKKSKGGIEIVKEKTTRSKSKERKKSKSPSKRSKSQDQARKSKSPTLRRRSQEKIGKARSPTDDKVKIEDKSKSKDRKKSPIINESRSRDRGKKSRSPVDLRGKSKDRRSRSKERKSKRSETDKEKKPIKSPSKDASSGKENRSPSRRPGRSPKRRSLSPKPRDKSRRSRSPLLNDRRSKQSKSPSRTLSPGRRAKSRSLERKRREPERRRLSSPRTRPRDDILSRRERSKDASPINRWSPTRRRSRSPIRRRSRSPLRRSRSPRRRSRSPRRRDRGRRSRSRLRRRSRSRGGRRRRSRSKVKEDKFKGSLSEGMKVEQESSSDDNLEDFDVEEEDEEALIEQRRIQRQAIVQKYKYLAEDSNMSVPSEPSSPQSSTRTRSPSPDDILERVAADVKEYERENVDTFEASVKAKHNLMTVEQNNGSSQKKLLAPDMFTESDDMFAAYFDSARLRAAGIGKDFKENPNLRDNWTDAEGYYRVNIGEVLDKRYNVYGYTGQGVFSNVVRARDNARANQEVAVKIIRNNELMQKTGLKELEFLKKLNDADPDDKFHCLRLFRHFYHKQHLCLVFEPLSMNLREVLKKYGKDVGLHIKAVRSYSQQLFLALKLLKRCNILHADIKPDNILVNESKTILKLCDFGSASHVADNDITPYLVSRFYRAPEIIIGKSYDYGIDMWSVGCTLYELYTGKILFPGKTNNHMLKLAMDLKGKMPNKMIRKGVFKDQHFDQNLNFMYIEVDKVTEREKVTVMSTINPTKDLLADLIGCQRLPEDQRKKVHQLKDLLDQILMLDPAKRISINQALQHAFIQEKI

S6K1 = biological target: T14, S6K1 (Homo sapiens, UniProt P23443)
T14 construct: purchased Eurofins DiscoverX KINOMEscan
T14 sequence (P23443 whole entry): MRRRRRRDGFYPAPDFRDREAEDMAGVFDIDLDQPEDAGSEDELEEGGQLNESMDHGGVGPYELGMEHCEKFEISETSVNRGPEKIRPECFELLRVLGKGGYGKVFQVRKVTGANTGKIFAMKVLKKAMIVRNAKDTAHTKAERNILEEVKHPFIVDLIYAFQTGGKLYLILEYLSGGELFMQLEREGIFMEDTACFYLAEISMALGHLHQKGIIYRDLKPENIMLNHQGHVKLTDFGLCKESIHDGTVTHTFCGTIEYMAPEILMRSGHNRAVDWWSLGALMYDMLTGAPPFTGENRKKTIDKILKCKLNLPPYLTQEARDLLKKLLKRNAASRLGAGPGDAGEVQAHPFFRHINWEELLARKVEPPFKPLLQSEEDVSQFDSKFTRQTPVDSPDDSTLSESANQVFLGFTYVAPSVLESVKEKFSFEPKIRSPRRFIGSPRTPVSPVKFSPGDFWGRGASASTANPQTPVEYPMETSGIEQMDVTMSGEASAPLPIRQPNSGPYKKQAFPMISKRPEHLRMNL

TSSK1B = biological target: T15, TSSK1B (Homo sapiens, UniProt Q9BXA7)
T15 construct: purchased Eurofins DiscoverX KINOMEscan
T15 sequence (Q9BXA7 1-367): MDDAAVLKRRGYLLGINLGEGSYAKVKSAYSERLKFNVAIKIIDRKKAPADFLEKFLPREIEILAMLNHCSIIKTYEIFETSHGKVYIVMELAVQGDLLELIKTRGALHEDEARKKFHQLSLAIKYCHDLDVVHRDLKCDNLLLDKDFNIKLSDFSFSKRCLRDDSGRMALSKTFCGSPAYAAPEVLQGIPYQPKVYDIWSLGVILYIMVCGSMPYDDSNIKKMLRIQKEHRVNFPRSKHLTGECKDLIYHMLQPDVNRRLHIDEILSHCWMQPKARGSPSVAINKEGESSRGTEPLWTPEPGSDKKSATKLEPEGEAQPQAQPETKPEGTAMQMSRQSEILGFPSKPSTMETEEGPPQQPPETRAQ

T2 sequence (Q9Y243 whole entry): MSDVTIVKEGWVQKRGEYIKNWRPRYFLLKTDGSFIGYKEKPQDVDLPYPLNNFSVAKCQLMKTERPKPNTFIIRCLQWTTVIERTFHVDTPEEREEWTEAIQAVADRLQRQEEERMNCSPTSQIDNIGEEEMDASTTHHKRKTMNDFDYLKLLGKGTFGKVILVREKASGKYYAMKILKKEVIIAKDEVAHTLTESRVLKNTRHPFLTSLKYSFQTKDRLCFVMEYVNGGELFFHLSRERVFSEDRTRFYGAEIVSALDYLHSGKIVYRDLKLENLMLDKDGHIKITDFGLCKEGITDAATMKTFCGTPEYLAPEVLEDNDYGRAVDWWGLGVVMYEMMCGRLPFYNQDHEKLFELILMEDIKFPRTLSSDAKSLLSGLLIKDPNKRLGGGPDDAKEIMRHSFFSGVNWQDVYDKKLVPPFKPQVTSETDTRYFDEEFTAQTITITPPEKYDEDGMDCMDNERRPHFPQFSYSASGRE

| Compound | remaining binding at 1 µM (ABL2) [%] | remaining binding at 1 µM (AKT3) [%] | remaining binding at 1 µM (CHEK2) [%] | remaining binding at 1 µM (CLK2) [%] | remaining binding at 1 µM (DDR1) [%] | remaining binding at 1 µM (FER) [%] | remaining binding at 1 µM (GCN2(Kin.Dom.2,S808G)) [%] | remaining binding at 1 µM (KIT(V559D,V654A)) [%] | remaining binding at 1 µM (LKB1) [%] | remaining binding at 1 µM (MYLK4) [%] | remaining binding at 1 µM (PDPK1) [%] | remaining binding at 1 µM (PIK3CG) [%] | remaining binding at 1 µM (PRP4) [%] | remaining binding at 1 µM (S6K1) [%] | remaining binding at 1 µM (TSSK1B) [%] |
| --- | --- | --- | --- | --- | --- | --- | --- | --- | --- | --- | --- | --- | --- | --- | --- |
| Clc1cc(NCC2CC2)c2ncc(-c3ccc4[nH]ncc4c3)n2n1 [compound 2, 6-Chloro-N-(cyclopropylmethyl)-3-(1H-indazol-5-yl)imidazo[1,2-b]pyridazin-8-amine] | 100 | 100 | 88 | 9.6 | 22 | 98 | 93 | 7.8 | 52 | 67 | 88 | 78 | 60 | 90 | 100 |
| O=C(CN1CCOCC1)N[C@H]1CC[C@H](Nc2cc(Cl)nn3c(-c4ccc5[nH]ncc5c4)cnc23)CC1 [compound 26] | 56 | 100 | 61 | 4.2 | 100 | 100 | 97 | 0.7 | 98 | 24 | 100 | 100 | 97 | 88 | 92 |
| CN1CCC(CNc2cc(Cl)nn3c(-c4cc5nc(Nc6ccccc6)[nH]c5cc4F)cnc23)CC1 [compound 31, 6-Chloro-3-(6-fluoro-2-(phenylamino)-1H-benzo[d]imidazol-5-yl)-N-((1-methylpiperidin-4-yl)methyl)imidazo[1,2-b]pyridazin-8-amine] | 92 | 90 | 100 | 79 | 96 | 82 | 77 | 27 | 77 | 91 | 100 | 100 | 93 | 95 | 88 |
